Data: patent publication US11098062B2, “Monocyclic and bicyclic ring system substituted carbanucleoside analogues for use as PRMT5 inhibitors” (Janssen Pharmaceutica NV, priority 2016, dated 2021)

Legend:
PRMT5-MEP50 enzyme [1] = molecular target: T1, PRMT5-MEP50 enzyme (Homo sapiens, UniProt O14744); assay: In vitro assay 1a: PRMT5-MEP50 high throughput mass spectrometer assay (SAH formation), 10 nM enzyme; type: biochemical; details: 1 μM SAM, 0.3 μM H2A, 30° C., 60 min, averaged values, read-out: pIC50 Assay 1a (converted)
T1 construct: One virus expresses full length human PRMT5 with Flag-tag at N-terminus; Flag (N); purchased Charles River (Argenta); host or cells: insect cells (Sf9), baculovirus co-infection
From the text: (§1) Experimental Procedures In Vitro Assay (Assay 1a and 1b)
(§2) PRMT5-MEP50 enzyme was purchased from Charles River (Argenta). The enzyme complex was produced in insect cells (Sf9) infected simultaneously with two baculoviruses. One virus expresses full length human PRMT5 with Flag-tag at N-terminus, the second virus expresses full length MEP50 with His6-TEV cleavage at N-terminus. The protein was affinity purified using anti-Flag (M2) beads eluted with 3×FLAG peptide, followed by His-Select eluted with 0.5M imidazole. Eluted protein was then dialysed against tris-buffered saline (TBS) (pH 8.0) containing 20% glycerol and 3 mM dithiothreitol (DTT).
(§3) Full-length untagged human recombinant histone H2A (residues 1-130, Genbank Accession #NM_021052, MW=14.1 kDa) expressed in E. coli was purchased from Reaction Biology Corporation, Cat #HMT-11-146. Reagents used for making reaction buffer or stopping reaction were purchased including Tris base (Sigma Cat #T-1503), NaCl (Sigma Cat #RGF-3270), MgCl2 (Sigma Cat #M0250), DTT (Invitrogen Cat #15508-013) and Formic Acid (Riedel deHaen, Cat #33015)
(§4) PRMT5 catalyzes the sequential methylations of the terminal nitrogen atoms on the guanidine groups of arginine residues within proteins using co-substrate S-adenosyl-L-methionine (AdoMet, SAM), forming mono-methyl (MMA), syrmmetric-dimethyl arginine (sDMA) and S-adenosyl-L-homocysteine (AdoHcy, SAH). The enzyme activity was determined by following the product SAH formation using high throughput mass spectrometry (Agilent Rapidfire 300 System coupled to a Sciex 4000 series QTrap® triple-quad MS/MS). The reaction buffer was 20 mM Tris-HCl, pH 8.5, 50 mM NaCl, 5 mM MgCl2 and 1 mM DTT. The reaction activity was stopped using 1% formic acid (final concentration).
(§5) The IC50 Studies were performed using eleven point dosing series made for each compound by serially diluted 1:2 in dimethyl sulfoxide (DMSO), with point 12 being a DMSO control. Compounds were first spotted to plates, and followed by addition of 2 μM SAM and 0.6 μM H2A (histone H2A) solution mixture. The same volume of enzyme solution was added to initiate the enzymatic reactions. The final concentrations of the reaction are at 1 μM SAM, 0.3 μM H2A and 10 nM enzyme (assay 1a) or or 1.25 nM enzyme (assay 1b). The reaction was incubated at 30° C. for 60 minutes (min) when 10 nM enzyme was used and for 120 min when 1.25 nM enzyme was used. Subsequently, the reaction was quenched by addition of formic acid to a final concentration of 1%. The inhibitions of SAH formation in the presence of compounds were calculated as a percentage of the control relative to the uninhibited reaction as a function of inhibitor concentration. The data were fit as follows: Y=Bottom+(Top−Bottom)/(1+10^((log IC50−X)*h))
(§6) where IC50 is the inhibitor concentration (same unit as X) at 50% inhibition and h is the Hill slope. Y is percent of inhibition, X is log of compound concentration. Bottom and Top are the plateaus in same units as Y.

[2] = test system: nuclear symmetric Arginine dimethylation in A549 cells; assay: PD assay (assay 2): inhibition of nuclear symmetric Arginine dimethylation (SYM10 immunostaining) in A549 cells; type: cell-based; details: Homo sapiens, 48 h incubation, SYM10 antibody, averaged values, read-out: pIC50 Assay 2 (converted)
Method: Experimental Procedure PD Assay (Assay 2)
A549 cells (ATCC, Cat #CCL-185) were cultured in Dulbecco's Modified Eagle's Medium (DMEM) (Sigma, Cat #D5796), supplemented with 10% Fetal Calf Serum (FCS) (HyClone™, Cat #SV30160.03), 100 mM Sodium Pyruvate (Sigma, Cat #S8636), 200 mM L-Glutamine (Sigma, Cat #G7513) and 50 mg/mL Gentamycing (Gibco, Cat #15750-037).
Reagents used for buffers were purchased: Dulbecco's phosphate buffered saline (DPBS) without Ca/Mg (Sigma, Cat #D8537), phosphate buffered saline (PBS) 10× (Roche, Cat #11 666 789 001), Formalin solution 10% (Sigma, HT50-1-128-4L), Methanol 100% (Sigma, Cat #32213-2.5L), Triton X-100 (Acros, Cat #215680010), Bovine Serum Albumin (BSA) (Sigma, Cat #A2153), Alexa fluor 488 goat anti-rabbit antibody (Life Technologies, Cat #A11034), HCS CellMask Deep Red Stain (Life Technologies, Cat #H32721), Hoechst Stain (Life Technologies, Cat #33258), Anti-dimethyl-Arginine, sym (SYM10) antibody (Millipore, 07-412).
Cells were plated at 400 cells/40 μL/well in 384 well black μplates clear bottom (Perkin Elmer) and overnight incubated at 37° C., 5% CO2. The IC50 Studies were performed using nine point dosing series ranging from 10 μM to […] for each compound. 80 nL of the respective dilution of the compounds was added using the Labcyte POD 810 (Labcyte) reaching a final DMSO concentration of 0.2% in cell culture. After an incubation period of 48 h at 37° C. and 5% CO2, cells were fixed in 10% formalin solution for 15 min at room temperature and 20 min in ice-cold methanol, after which they were washed 3× in DPBS. Subsequently, the cells were blocked for 1 h in blocking buffer (PBS+1% BSA and 0.5% Triton X-100) and incubated overnight at 4° C. with the SYM10 antibody diluted 1/2000 in blocking buffer. The cells were washed 3× with washing buffer (PBS+0.1% Triton X-100) and incubated with the Alexa fluor 488 goat anti-rabbit antibody diluted 1/200 in blocking buffer for 1 h at room temperature. Subsequently, they were washed 3× with washing buffer and incubated for 30 min at room temperature with PBS containing a 1/5000 dilution of Hoechst Stain and a 1/5000 dilution of the HCS CellMask Deep Red Stain. After a final wash with PBS, the plates were imaged using the 10×W lens of the Opera® system (Perkin Elmer Life Sciences) using following settings (values in nm):
Low control: minimum level of symmetrically dimethylated Arginines (cells treated with reference compound at 10 μM).
High control: maximum level of symmetrically dimethylated Arginines (DMSO treated cells).
IC50 and pIC50 (−log IC50) values were calculated using the appropriate software.
The pIC50 values in the Table below are averaged values (Co. No. means compound number; n.d. means not determined).

PRMT5 = PRMT5 (Homo sapiens, UniProt O14744); details: background statement; cited from earlier work
MCL xenograft models = details: multiple MCL xenograft models; cited from earlier work
PRMT5-MEP50 enzyme [3] = molecular target: T1, PRMT5-MEP50 enzyme; assay: In vitro assay 1b: PRMT5-MEP50 high throughput mass spectrometer assay (SAH formation), 1.25 nM enzyme; type: biochemical
From the text: as §1, §2, §3, §4, §5, §6

[4] = 1.25 nM enzyme, 1 μM SAM, 0.3 μM H2A, 30° C., 120 min, averaged values, read-out: pIC50 Assay 1b (converted)

T1 sequence (O14744 whole entry): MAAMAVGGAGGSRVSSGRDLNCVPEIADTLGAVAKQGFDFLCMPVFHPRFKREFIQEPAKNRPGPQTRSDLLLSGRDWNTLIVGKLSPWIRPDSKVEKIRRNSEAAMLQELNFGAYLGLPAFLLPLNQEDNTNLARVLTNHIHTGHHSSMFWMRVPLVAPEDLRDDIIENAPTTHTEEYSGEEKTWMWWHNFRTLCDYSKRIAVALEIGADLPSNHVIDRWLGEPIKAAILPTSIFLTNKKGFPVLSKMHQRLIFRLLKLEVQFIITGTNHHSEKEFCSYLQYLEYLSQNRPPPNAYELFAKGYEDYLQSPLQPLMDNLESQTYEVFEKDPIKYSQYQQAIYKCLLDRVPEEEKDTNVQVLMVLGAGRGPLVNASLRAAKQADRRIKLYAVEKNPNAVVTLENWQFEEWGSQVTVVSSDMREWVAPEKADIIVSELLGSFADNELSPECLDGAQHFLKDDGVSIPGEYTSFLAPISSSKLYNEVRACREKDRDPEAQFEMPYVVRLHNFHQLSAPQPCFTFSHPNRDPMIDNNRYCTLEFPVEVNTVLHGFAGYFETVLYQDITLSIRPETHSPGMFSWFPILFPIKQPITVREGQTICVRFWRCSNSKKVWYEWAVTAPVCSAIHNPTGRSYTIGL
T1 sequence (Q9BQA1 whole entry partner): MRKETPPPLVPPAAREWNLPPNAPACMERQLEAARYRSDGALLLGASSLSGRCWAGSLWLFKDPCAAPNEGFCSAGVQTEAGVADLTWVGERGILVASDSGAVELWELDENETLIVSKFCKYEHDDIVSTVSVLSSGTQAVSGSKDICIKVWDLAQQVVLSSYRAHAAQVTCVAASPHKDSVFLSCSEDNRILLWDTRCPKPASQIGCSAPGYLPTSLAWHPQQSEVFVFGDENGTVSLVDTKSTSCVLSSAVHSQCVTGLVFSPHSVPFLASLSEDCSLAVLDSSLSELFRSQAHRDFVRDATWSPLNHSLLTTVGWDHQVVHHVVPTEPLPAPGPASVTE
Chain of PRMT5 (O14744 whole entry, species assumed): as the sequence (O14744 whole entry) above
Chain of PRMT5 (Q9BQA1 whole entry partner, species assumed): as the sequence (Q9BQA1 whole entry partner) above

| SMILES | IC50 (PRMT5-MEP50 enzyme [1]) | IC50 [2] | IC50 (PRMT5-MEP50 enzyme [3]; [4]) | other results |
| --- | --- | --- | --- | --- |
| O=C(NC[C@H](O)CN1CCc2ccccc2C1)c1cc(NC2COC2)ncn1 [EPZ015666] |  |  |  | PRMT5 inhibitor potency (PRMT5): sub-nanomolar potent; anti-tumour activity (MCL xenograft models): anti-tumour activity in multiple MCL xenograft models |
| Nc1ccc(CC[C@H]2C[C@@H](n3ccc4c(N)ncnc43)[C@H](O)[C@@H]2O)cn1 [Compound 27] |  | 6.31 nM |  | IC50 (PRMT5-MEP50 enzyme [3]): 5.01 nM |
| Nc1ncnc2c1ccn2[C@@H]1C[C@H](CCc2ccn3c(Br)cnc3c2)[C@@H](O)[C@H]1O [Compound 14] | 1.26 nM | 12.6 nM | 1.58 nM |  |
| Cn1cnc2cc(OC[C@H]3C[C@@H](n4ccc5c(N)ncnc54)[C@H](O)[C@@H]3O)ccc21 [Compound 25] | 126 nM | 2000 nM |  |  |
| Nc1ncnc2c1ccn2[C@@H]1C[C@H](CCc2cc3ncccc3[nH]2)[C@@H](O)[C@H]1O [Compound 17] | 39.8 nM | 1000 nM |  |  |
| Nc1ncnc2c1ccn2[C@@H]1C[C@H](CCc2ccn3c(Cl)cnc3c2)[C@@H](O)[C@H]1O [Compound 13] | 2 nM | 20 nM | 1.26 nM |  |
| Cc1cnc2cc(CC[C@H]3C[C@@H](n4ccc5c(N)ncnc54)[C@H](O)[C@@H]3O)c(F)cn12 [Compound 12] |  | 2 nM | 0.316 nM |  |
| Cc1cnc2cc(CC[C@H]3C[C@@H](n4cc(Br)c5c(N)ncnc54)[C@H](O)[C@@H]3O)ccn12 [Compound 15] |  | 6.31 nM | 1 nM |  |
| Nc1ncnc2c1ccn2[C@@H]1C[C@H](COc2ccn3ccnc3c2)[C@@H](O)[C@H]1O [Compound 24] | 31.6 nM | 1580 nM |  |  |
| Nc1ncnc2c1ccn2[C@@H]1C[C@H](CCc2ccn3c(C4CC4)cnc3c2)[C@@H](O)[C@H]1O [Compound 8] |  | 25.1 nM | 2.51 nM |  |
| COc1ncnc2c1ccn2[C@@H]1C[C@H](CCc2ccn3c(C)cnc3c2)[C@@H](O)[C@H]1O [Compound 10] |  | 200 nM | 10 nM |  |
| Cc1nc2cc(CC[C@H]3C[C@@H](n4ccc5c(N)ncnc54)[C@H](O)[C@@H]3O)ccn2c1C [Compound 11] |  | 3.98 nM |  | IC50 (PRMT5-MEP50 enzyme [3]): < 0.2 nM |
| Nc1ccc(/C=C/[C@H]2C[C@@H](n3ccc4c(N)ncnc43)[C@H](O)[C@@H]2O)cn1 [Compound 30] |  | 501 nM | 63.1 nM |  |
| Cc1cnc2c(Cl)c(CC[C@H]3C[C@@H](n4ccc5c(N)ncnc54)[C@H](O)[C@@H]3O)ccn12 [Compound 21] |  | 15.8 nM | 3.98 nM |  |
| Nc1ncnc2c1ccn2[C@@H]1C[C@H](CCc2cc3ncccc3o2)[C@@H](O)[C@H]1O [Compound 19] | 1260 nM | 5010 nM |  |  |
| CNc1ncnc2c1ccn2[C@@H]1C[C@H](CCc2ccn3c(C)cnc3c2)[C@@H](O)[C@H]1O [Compound 9] |  | 63.1 nM | 3.98 nM |  |
| Nc1ncnc2c1ccn2[C@@H]1C[C@H](CCc2ccn3ccnc3c2)[C@@H](O)[C@H]1O [Compound 3] | 2 nM | 20 nM |  |  |
| Cc1cnc2cc(CC[C@H]3C[C@@H](n4ccc5c(N)ncnc54)[C@H](O)[C@@H]3O)c(Cl)cn12 [Compound 2] |  | 6.31 nM | 0.158 nM |  |

The next lines start with results.

| IC50 (PRMT5-MEP50 enzyme [1]) | IC50 [2] | IC50 (PRMT5-MEP50 enzyme [3]; [4]) | SMILES | other results |
| --- | --- | --- | --- | --- |
| 12.6 nM | 31.6 nM |  | Cn1cnc2cc(CC[C@H]3C[C@@H](n4ccc5c(N)ncnc54)[C@H](O)[C@@H]3O)ccc21 [Compound 4] |  |
| 2 nM | 15.8 nM |  | Nc1nc2cc(CC[C@H]3C[C@@H](n4ccc5c(N)ncnc54)[C@H](O)[C@@H]3O)ccc2s1 [Compound 6] |  |
| 6.31 nM | 25.1 nM |  | CNc1nc2cc(CC[C@H]3C[C@@H](n4ccc5c(N)ncnc54)[C@H](O)[C@@H]3O)ccc2s1 [Compound 7] |  |
| 12.6 nM | 3980 nM |  | Nc1nc2cc(CC[C@H]3C[C@@H](n4ccc5c(Cl)ncnc54)[C@H](O)[C@@H]3O)ccc2s1 [Compound 5] |  |
|  | 2000 nM | 398 nM | Nc1cc(CC[C@H]2C[C@@H](n3ccc4c(N)ncnc43)[C@H](O)[C@@H]2O)ccn1 [Compound 29] |  |
| 39.8 nM | 126 nM |  | Nc1ncnc2c1ccn2[C@@H]1C[C@H](CCc2cc3ncccc3s2)[C@@H](O)[C@H]1O [Compound 18] |  |
| 0.794 nM | 1.26 nM |  | Cc1cnc2cc(CC[C@H]3C[C@@H](n4ccc5c(N)ncnc54)[C@H](O)[C@@H]3O)ccn12 [Compound 1] |  |
|  | 631 nM | 158 nM | Nc1cccc(CC[C@H]2C[C@@H](n3ccc4c(N)ncnc43)[C@H](O)[C@@H]2O)n1 [Compound 28] |  |
